How the values were obtained:
CHEK1 (CHK1) = CHEK1 (CHK1) (Homo sapiens, UniProt O14757); assay: Kinome selectivity screen CHEK1; type: biochemical; settings: 1 μM compound
Procedure: (§1) Kinome Selectivity Screen:
(§2) Kinase selectivity was assessed using the Life Technologies SelectScreen Kinase Profiling Service in a custom panel of 76 kinases selected to provide broad representative coverage of all kinase families. Kinase activity assays employed either the Z′-LYTE or Adapta assay technologies with ATP concentrations at or near the KM, ATP for each kinase and a test compound concentration of 1 μM.

KDR (VEGFR2) = KDR (VEGFR2) (Homo sapiens, UniProt P35968); assay: Kinome selectivity screen KDR; type: biochemical; settings: 1 μM compound
Procedure: as §1, §2

SRC = SRC (Homo sapiens, UniProt P12931); assay: Kinome selectivity screen SRC; type: biochemical; settings: 1 μM compound
Procedure: as §1, §2

PRKG2 (PKG2) = PRKG2 (PKG2) (Homo sapiens, UniProt Q13237); assay: Kinome selectivity screen PRKG2; type: biochemical; settings: 1 μM compound
Procedure: as §1, §2

ERBB2 (HER2) = ERBB2 (HER2) (Homo sapiens, UniProt P04626); assay: Kinome selectivity screen ERBB2; type: biochemical; settings: 1 μM compound
Procedure: as §1, §2

PRKCB1 (PKC beta I) = PRKCB1 (PKC beta I) (Homo sapiens, UniProt P05771); assay: Kinome selectivity screen PRKCB1; type: biochemical; settings: 1 μM compound
Procedure: as §1, §2

LRRK2 = LRRK2 (Homo sapiens, UniProt Q5S007); assay: Kinome selectivity screen LRRK2; type: biochemical; settings: 1 μM compound
Procedure: as §1, §2

CDK9/cyclin T1 = CDK9/cyclin T1 (Homo sapiens, UniProt P50750); assay: Kinome selectivity screen CDK9/cyclin T1; type: biochemical; settings: 1 μM compound
Procedure: as §1, §2

PIM1 = PIM1 (Homo sapiens, UniProt P11309); assay: Kinome selectivity screen PIM1; type: biochemical; settings: 1 μM compound
Sequence of PIM1 (P11309 whole entry): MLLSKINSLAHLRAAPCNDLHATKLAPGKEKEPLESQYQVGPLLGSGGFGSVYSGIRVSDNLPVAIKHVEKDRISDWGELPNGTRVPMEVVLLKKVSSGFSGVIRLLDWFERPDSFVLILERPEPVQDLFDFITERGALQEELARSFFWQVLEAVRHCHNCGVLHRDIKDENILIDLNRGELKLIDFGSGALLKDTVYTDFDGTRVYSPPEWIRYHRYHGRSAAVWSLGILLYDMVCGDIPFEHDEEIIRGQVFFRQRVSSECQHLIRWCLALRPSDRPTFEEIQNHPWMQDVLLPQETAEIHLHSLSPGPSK
Procedure: as §1, §2

FGFR1 = FGFR1 (Homo sapiens, UniProt P11362); assay: Kinome selectivity screen FGFR1; type: biochemical; settings: 1 μM compound
Sequence of FGFR1 (P11362 22-822): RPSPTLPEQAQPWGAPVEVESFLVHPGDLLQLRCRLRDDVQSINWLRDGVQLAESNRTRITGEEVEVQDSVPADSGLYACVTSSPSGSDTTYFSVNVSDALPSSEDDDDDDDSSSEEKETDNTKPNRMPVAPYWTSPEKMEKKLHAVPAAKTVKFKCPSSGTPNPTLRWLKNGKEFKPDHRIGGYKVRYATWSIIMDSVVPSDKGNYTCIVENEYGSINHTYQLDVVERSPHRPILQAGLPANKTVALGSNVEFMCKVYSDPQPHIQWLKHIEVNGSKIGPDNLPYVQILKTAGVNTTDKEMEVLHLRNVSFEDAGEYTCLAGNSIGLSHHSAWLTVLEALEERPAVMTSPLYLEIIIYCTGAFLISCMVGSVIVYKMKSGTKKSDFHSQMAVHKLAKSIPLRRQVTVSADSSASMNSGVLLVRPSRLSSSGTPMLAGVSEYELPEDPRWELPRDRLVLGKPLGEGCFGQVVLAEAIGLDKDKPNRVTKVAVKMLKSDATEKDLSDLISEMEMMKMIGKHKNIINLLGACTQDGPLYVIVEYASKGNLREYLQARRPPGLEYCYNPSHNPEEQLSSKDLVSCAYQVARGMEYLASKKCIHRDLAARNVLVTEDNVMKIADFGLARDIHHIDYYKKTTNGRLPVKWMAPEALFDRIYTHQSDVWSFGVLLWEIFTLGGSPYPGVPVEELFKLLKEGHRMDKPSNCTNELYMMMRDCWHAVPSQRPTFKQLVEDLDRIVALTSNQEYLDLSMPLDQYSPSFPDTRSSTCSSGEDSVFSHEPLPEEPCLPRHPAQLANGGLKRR
Procedure: as §1, §2

MAP3K9 (MLK1) = MAP3K9 (MLK1) (Homo sapiens, UniProt P80192); assay: Kinome selectivity screen MAP3K9; type: biochemical; settings: 1 μM compound
Procedure: as §1, §2

INSR = INSR (Homo sapiens, UniProt P06213); assay: Kinome selectivity screen INSR; type: biochemical; settings: 1 μM compound
Procedure: as §1, §2

NEK1 = NEK1 (Homo sapiens, UniProt Q96PY6); assay: Kinome selectivity screen NEK1; type: biochemical; settings: 1 μM compound
Procedure: as §1, §2

JAK3 = JAK3 (Homo sapiens, UniProt P52333); assay: Kinome selectivity screen JAK3; type: biochemical; settings: 1 μM compound
Sequence of JAK3 (P52333 whole entry): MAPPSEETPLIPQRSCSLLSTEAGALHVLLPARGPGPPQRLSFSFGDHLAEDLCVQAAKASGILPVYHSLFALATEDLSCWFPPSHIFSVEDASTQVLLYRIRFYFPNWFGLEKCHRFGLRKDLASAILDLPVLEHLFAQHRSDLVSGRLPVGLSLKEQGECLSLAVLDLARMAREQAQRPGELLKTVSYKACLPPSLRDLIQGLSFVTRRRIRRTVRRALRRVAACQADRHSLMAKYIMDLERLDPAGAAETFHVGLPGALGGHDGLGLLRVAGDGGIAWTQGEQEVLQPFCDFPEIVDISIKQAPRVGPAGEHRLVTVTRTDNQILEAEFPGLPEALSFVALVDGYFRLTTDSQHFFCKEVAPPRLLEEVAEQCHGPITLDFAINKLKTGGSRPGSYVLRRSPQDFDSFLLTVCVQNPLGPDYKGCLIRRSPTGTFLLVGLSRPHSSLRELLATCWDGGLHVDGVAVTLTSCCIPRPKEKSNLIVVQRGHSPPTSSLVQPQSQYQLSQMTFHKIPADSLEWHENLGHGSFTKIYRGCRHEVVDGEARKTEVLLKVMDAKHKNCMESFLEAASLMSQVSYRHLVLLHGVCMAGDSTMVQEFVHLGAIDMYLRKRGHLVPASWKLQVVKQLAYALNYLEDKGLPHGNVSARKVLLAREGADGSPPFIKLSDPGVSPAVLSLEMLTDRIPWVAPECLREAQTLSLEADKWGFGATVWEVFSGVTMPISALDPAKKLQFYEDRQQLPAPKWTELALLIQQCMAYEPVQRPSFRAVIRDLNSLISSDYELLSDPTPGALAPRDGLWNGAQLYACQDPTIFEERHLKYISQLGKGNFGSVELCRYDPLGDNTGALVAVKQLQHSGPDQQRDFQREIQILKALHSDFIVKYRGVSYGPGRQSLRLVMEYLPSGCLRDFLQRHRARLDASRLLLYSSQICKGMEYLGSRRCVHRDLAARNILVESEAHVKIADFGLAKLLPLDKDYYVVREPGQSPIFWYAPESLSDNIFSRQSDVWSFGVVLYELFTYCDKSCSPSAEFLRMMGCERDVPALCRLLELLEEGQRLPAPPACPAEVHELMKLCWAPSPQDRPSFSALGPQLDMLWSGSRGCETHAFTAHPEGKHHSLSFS
Procedure: as §1, §2

IGF1R = IGF1R (Homo sapiens, UniProt P08069); assay: Kinome selectivity screen IGF1R; type: biochemical; settings: 1 μM compound
Procedure: as §1, §2

PDK1 Direct = PDK1 Direct (Homo sapiens, UniProt O15530); assay: Kinome selectivity screen PDK1 Direct; type: biochemical; settings: 1 μM compound
Procedure: as §1, §2

catalytic domain of MKK7 = biological target: T1, catalytic domain of MKK7 (Homo sapiens, UniProt O14733); assay: Activity based fluorescent labeling in bacterial lysate overexpressing MKK7; type: binding; settings: pre-incubated with the lysate
T1 construct: over-expressing MKK7 (103-426 residues); 6-His (C); made in house; host or cells: E. coli Rosetta2 BL21 (DE3), crude lysate
T1 sequence (O14733 87-410): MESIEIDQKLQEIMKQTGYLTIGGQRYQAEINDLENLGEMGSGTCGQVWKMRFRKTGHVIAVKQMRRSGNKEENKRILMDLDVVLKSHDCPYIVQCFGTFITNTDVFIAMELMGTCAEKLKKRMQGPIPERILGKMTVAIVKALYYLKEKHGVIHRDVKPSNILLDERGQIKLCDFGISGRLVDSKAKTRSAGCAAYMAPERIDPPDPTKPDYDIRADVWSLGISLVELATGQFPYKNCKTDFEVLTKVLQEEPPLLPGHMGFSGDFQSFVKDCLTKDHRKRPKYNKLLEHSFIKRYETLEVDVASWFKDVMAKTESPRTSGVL

EPHB1 = EPHB1 (Homo sapiens, UniProt P54762); assay: Kinome selectivity screen EPHB1; type: biochemical; settings: 1 μM compound
Procedure: as §1, §2

RET = RET (Homo sapiens, UniProt P07949); assay: Kinome selectivity screen RET; type: biochemical; settings: 1 μM compound
Procedure: as §1, §2

FLT1 (VEGFR1) = FLT1 (VEGFR1) (Homo sapiens, UniProt P17948); assay: Kinome selectivity screen FLT1; type: biochemical; settings: 1 μM compound
Sequence of FLT1 (VEGFR1) (P17948 27-1338): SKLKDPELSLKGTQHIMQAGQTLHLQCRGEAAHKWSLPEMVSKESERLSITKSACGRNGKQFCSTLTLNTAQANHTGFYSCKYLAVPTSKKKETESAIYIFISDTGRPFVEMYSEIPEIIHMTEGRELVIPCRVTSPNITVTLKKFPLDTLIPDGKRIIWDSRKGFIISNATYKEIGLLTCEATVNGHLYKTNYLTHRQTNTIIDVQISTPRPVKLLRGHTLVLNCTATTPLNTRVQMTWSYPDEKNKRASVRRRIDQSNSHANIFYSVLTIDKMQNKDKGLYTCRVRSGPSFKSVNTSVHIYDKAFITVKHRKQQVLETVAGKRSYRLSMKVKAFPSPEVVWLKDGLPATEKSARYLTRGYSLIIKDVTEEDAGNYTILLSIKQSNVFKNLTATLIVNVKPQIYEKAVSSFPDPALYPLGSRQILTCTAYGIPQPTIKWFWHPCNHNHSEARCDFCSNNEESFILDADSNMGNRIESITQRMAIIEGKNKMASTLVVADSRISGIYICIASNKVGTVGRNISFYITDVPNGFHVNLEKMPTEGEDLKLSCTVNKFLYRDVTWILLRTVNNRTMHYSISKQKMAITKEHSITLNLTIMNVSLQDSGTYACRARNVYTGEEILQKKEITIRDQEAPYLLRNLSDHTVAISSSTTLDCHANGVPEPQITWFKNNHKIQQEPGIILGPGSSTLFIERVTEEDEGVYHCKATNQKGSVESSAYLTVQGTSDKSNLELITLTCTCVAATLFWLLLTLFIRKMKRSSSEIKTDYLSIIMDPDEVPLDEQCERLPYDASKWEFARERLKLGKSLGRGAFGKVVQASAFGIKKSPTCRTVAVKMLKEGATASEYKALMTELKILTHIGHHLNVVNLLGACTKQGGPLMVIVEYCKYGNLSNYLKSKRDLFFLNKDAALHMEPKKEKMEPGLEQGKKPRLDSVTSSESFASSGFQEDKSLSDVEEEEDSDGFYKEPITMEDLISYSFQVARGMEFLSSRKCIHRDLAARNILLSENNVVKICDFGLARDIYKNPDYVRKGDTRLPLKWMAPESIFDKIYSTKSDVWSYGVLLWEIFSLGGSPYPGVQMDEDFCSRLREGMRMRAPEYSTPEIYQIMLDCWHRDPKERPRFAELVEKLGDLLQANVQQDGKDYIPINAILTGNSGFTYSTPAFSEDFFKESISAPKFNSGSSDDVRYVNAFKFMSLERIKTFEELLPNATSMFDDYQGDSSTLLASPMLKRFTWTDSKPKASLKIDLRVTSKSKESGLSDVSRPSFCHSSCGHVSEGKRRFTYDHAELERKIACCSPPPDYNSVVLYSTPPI
Procedure: as §1, §2

MET (cMet) = MET (cMet) (Homo sapiens, UniProt P08581); assay: Kinome selectivity screen MET; type: biochemical; settings: 1 μM compound
Procedure: as §1, §2

PRKCD (PKC delta) = PRKCD (PKC delta) (Homo sapiens, UniProt Q05655); assay: Kinome selectivity screen PRKCD; type: biochemical; settings: 1 μM compound
Procedure: as §1, §2

STK22D (TSSK1) = STK22D (TSSK1) (Homo sapiens, UniProt Q9BXA7); assay: Kinome selectivity screen STK22D; type: biochemical; settings: 1 μM compound
Procedure: as §1, §2

RPS6KB1 (p70S6K) = RPS6KB1 (p70S6K) (Homo sapiens, UniProt P23443); assay: Kinome selectivity screen RPS6KB1; type: biochemical; settings: 1 μM compound
Sequence of RPS6KB1 (p70S6K) (P23443 whole entry): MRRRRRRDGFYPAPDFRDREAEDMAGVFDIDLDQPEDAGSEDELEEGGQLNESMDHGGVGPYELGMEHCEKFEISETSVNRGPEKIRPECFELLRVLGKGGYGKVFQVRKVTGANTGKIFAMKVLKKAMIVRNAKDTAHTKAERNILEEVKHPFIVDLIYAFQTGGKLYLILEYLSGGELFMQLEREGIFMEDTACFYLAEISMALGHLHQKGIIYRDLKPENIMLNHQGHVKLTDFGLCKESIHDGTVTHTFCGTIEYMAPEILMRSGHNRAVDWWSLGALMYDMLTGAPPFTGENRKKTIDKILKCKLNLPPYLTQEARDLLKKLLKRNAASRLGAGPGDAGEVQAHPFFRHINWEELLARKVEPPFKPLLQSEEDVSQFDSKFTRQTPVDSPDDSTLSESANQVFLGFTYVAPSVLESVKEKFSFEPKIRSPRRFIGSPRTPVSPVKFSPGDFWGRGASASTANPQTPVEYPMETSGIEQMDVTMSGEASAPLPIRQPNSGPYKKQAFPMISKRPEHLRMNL
Procedure: as §1, §2

MAP2K4 (MEK4) = MAP2K4 (MEK4) (Homo sapiens, UniProt P45985); assay: Kinome selectivity screen MAP2K4; type: biochemical; settings: 1 μM compound
Procedure: as §1, §2

SYK = SYK (Homo sapiens, UniProt P43405); assay: Kinome selectivity screen SYK; type: biochemical; settings: 1 μM compound
Procedure: as §1, §2

ACVR1B (ALK4) = ACVR1B (ALK4) (Homo sapiens, UniProt P36896); assay: Kinome selectivity screen ACVR1B; type: biochemical; settings: 1 μM compound
Procedure: as §1, §2

NEK7 = NEK7 (Homo sapiens, UniProt Q8TDX7); assay: Kinome selectivity screen NEK7; type: biochemical; settings: 1 μM compound
Procedure: as §1, §2

PHKG2 = PHKG2 (Homo sapiens, UniProt P15735); assay: Kinome selectivity screen PHKG2; type: biochemical; settings: 1 μM compound
Procedure: as §1, §2

MAPKAPK2 = MAPKAPK2 (Homo sapiens, UniProt P49137); assay: Kinome selectivity screen MAPKAPK2; type: biochemical; settings: 1 μM compound
Sequence of MAPKAPK2 (P49137 whole entry): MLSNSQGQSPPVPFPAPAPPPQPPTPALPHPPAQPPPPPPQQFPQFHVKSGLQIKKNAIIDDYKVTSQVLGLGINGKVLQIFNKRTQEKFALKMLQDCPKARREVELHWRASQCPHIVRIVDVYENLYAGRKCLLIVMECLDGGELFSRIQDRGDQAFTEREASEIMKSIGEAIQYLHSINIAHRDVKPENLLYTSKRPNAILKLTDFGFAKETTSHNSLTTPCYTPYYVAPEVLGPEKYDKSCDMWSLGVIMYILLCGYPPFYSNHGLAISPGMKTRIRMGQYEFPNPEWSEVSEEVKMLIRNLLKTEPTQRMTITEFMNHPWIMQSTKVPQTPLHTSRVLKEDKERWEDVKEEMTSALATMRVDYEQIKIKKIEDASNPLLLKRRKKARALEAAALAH
Procedure: as §1, §2

MAP4K5 (KHS1) = MAP4K5 (KHS1) (Homo sapiens, UniProt Q9Y4K4); assay: Kinome selectivity screen MAP4K5; type: biochemical; settings: 1 μM compound
Procedure: as §1, §2

ROCK1 = ROCK1 (Homo sapiens, UniProt Q13464); assay: Kinome selectivity screen ROCK1; type: biochemical; settings: 1 μM compound
Procedure: as §1, §2

GSK3B (GSK3 beta) = GSK3B (GSK3 beta) (Homo sapiens, UniProt P49841); assay: Kinome selectivity screen GSK3B; type: biochemical; settings: 1 μM compound
Procedure: as §1, §2

IRAK4 = IRAK4 (Homo sapiens, UniProt Q9NWZ3); assay: Kinome selectivity screen IRAK4; type: biochemical; settings: 1 μM compound
Procedure: as §1, §2

DAPK3 (ZIPK) = DAPK3 (ZIPK) (Homo sapiens, UniProt O43293); assay: Kinome selectivity screen DAPK3; type: biochemical; settings: 1 μM compound
Procedure: as §1, §2

ABL1 = ABL1 (Homo sapiens, UniProt P00519); assay: Kinome selectivity screen ABL1; type: biochemical; settings: 1 μM compound
Procedure: as §1, §2

IKBKB (IKK beta) = IKBKB (IKK beta) (Homo sapiens, UniProt O14920); assay: Kinome selectivity screen IKBKB; type: biochemical; settings: 1 μM compound
Procedure: as §1, §2

inhibition at 1 µM (CHEK1 (CHK1)) [%] | inhibition at 1 µM (KDR (VEGFR2)) [%] | inhibition at 1 µM (SRC) [%] | inhibition at 1 µM (PRKG2 (PKG2)) [%] | inhibition at 1 µM (ERBB2 (HER2)) [%] | inhibition at 1 µM (PRKCB1 (PKC beta I)) [%] | inhibition at 1 µM (LRRK2) [%] | inhibition at 1 µM (CDK9/cyclin T1) [%] | inhibition at 1 µM (PIM1) [%] | inhibition at 1 µM (FGFR1) [%] | inhibition at 1 µM (MAP3K9 (MLK1)) [%] | inhibition at 1 µM (INSR) [%] | inhibition at 1 µM (NEK1) [%] | inhibition at 1 µM (JAK3) [%] | inhibition at 1 µM (IGF1R) [%] | inhibition at 1 µM (PDK1 Direct) [%] | competition of PCM548 binding (catalytic domain of MKK7) | inhibition at 1 µM (EPHB1) [%] | inhibition at 1 µM (RET) [%] | inhibition at 1 µM (FLT1 (VEGFR1)) [%] | Structure (SMILES) | other results
10 | 4 | 10 | -2 | 1 | 1 | 95 | 3 | 1 | 2 | 37 | -10 | 5 | 89 | 6 | 22 | able to compete PCM548 binding | -4 | 6 | -1 | C=CC(=O)Nc1cccc(-c2n[nH]c3ccccc23)c1 [GO32] | inhibition at 1 µM (MET (cMet)): 9%; inhibition at 1 µM (PRKCD (PKC delta)): 9%; inhibition at 1 µM (STK22D (TSSK1)): 0%; inhibition at 1 µM (RPS6KB1 (p70S6K)): 5%; inhibition at 1 µM (MAP2K4 (MEK4)): 79%; inhibition at 1 µM (SYK): 19%; inhibition at 1 µM (ACVR1B (ALK4)): -8%; inhibition at 1 µM (NEK7): 8%; inhibition at 1 µM (PHKG2): 1%; inhibition at 1 µM (MAPKAPK2): 2%; inhibition at 1 µM (MAP4K5 (KHS1)): 22%; inhibition at 1 µM (ROCK1): -3%; inhibition at 1 µM (GSK3B (GSK3 beta)): -10%; inhibition at 1 µM (IRAK4): 15%; inhibition at 1 µM (DAPK3 (ZIPK)): -3%; inhibition at 1 µM (ABL1): 2%; inhibition at 1 µM (IKBKB (IKK beta)): -3%
2 | 6 | -4 | 0 | -1 | 5 | 94 | 5 | 5 | -2 | 8 | -7 | 2 | 64 | 7 | 26 | able to compete PCM548 binding | -2 | 5 | 2 | C=CC(=O)Nc1cccc(-c2n[nH]c3cc(C)ccc23)c1 [GO80] | inhibition at 1 µM (MET (cMet)): 13%; inhibition at 1 µM (PRKCD (PKC delta)): 7%; inhibition at 1 µM (STK22D (TSSK1)): -1%; inhibition at 1 µM (RPS6KB1 (p70S6K)): 0%; inhibition at 1 µM (MAP2K4 (MEK4)): 81%; inhibition at 1 µM (SYK): 17%; inhibition at 1 µM (ACVR1B (ALK4)): 5%; inhibition at 1 µM (NEK7): 7%; inhibition at 1 µM (PHKG2): 7%; inhibition at 1 µM (MAPKAPK2): 1%; inhibition at 1 µM (MAP4K5 (KHS1)): -11%; inhibition at 1 µM (ROCK1): 3%; inhibition at 1 µM (GSK3B (GSK3 beta)): -8%; inhibition at 1 µM (IRAK4): 12%; inhibition at 1 µM (DAPK3 (ZIPK)): -2%; inhibition at 1 µM (ABL1): 1%; inhibition at 1 µM (IKBKB (IKK beta)): -5%

From patent publication US20210238173A1, “MITOGEN-ACTIVATED PROTEIN KINASE KINASE 7 INHIBITORS” (Yeda Research and Development Co. Ltd., priority 2018, published 2021)
